# Source: ChEMBL document CHEMBL1201862, “PubChem BioAssay data set” (2004)
#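 Cells were grown in 96-well plates and exposed to each compound for 48 hours at five concentrations; endpoints were interpolated linearly between bracketing concentrations, or set to the highest concentration if not reached. GI50: concentration for 50% inhibition of growth.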 Active and inactive are the calls of the source. Cut-off read from the data, not from the text of the source: active = GI50 up to about 1.1 µM and inactive = higher.
# Key:
# Assay in all cases: NCI-60 cell line screen, 48 h
# [1] = test system: MDA-MB-435
# [2] = test system: HCC 2998
# [3] = test system: Malme-3M
# [4] = test system: NCI-H23
# [5] = test system: NCI-H226
# [6] = test system: M14
# [7] = test system: SNB-19
# [8] = test system: IGROV-1
# [9] = test system: OVCAR-3
# [10] = test system: T47D
# [11] = test system: UACC-257
# [12] = test system: SR
# [13] = test system: SK-MEL-5
# [14] = test system: Hs-578T
# [15] = test system: 786-0
# [16] = test system: K562
# [17] = test system: BT-549
# [18] = test system: U-251
# [19] = test system: MDA-N
# [20] = test system: LOX IMVI
# [21] = test system: MCF7
# [22] = test system: HT-29
# [23] = test system: HOP-62
# [24] = test system: HCT-116
# [25] = test system: OVCAR-8
# [26] = test system: TK-10
# [27] = test system: SN12C
# [28] = test system: ACHN
# [29] = test system: RXF 393
# [30] = test system: RPMI-8226
# [31] = test system: COLO 205
# [32] = test system: HCT-15
# [33] = test system: MDA-MB-231
# [34] = test system: MOLT-4
# [35] = test system: KM12
# [36] = test system: PC-3
# [37] = test system: HL-60
# [38] = test system: UO-31
# [39] = test system: SK-MEL-2
# [40] = test system: SF-295
# [41] = test system: SK-MEL-28
# [42] = test system: NCI-H460
# [43] = test system: SW-620
# [44] = test system: NCI/ADR-RES
# [45] = test system: EKVX
# [46] = test system: HOP-92
# [47] = test system: SF-268
# [48] = test system: DU-145
# [49] = test system: UACC-62
# [50] = test system: CAKI-1
# [51] = test system: OVCAR-4
# [52] = test system: SK-OV-3
# [53] = test system: NCI-H522
# [54] = test system: SF-539
# [55] = test system: OVCAR-5
# [56] = test system: A498
# [57] = test system: A549
# [58] = test system: CCRF-CEM
compound,measurement,setting,value
Nc1nc(-c2cccc([N+](=O)[O-])c2)cc(-c2cc(-c3cccc([N+](=O)[O-])c3)nc(N)n2)n1,GI50,[1],> 100 µM (inactive)
same,GI50,[2],> 100 µM (inactive)
same,GI50,[3],> 100 µM (inactive)
same,GI50,[4],> 100 µM (inactive)
same,GI50,[5],> 100 µM (inactive)
same,GI50,[6],> 100 µM (inactive)
same,GI50,[7],> 100 µM (inactive)
same,GI50,[8],> 100 µM (inactive)
same,GI50,[9],> 100 µM (inactive)
same,GI50,[10],> 100 µM (inactive)
same,GI50,[11],> 100 µM (inactive)
same,GI50,[12],> 100 µM (inactive)
same,GI50,[13],> 100 µM (inactive)
same,GI50,[14],> 100 µM (inactive)
same,GI50,[15],> 100 µM (inactive)
same,GI50,[16],> 100 µM (inactive)
same,GI50,[17],> 100 µM (inactive)
same,GI50,[18],> 100 µM (inactive)
same,GI50,[19],> 100 µM (inactive)
same,GI50,[20],> 100 µM (inactive)
same,GI50,[21],> 100 µM (inactive)
same,GI50,[22],> 100 µM (inactive)
same,GI50,[23],> 100 µM (inactive)
same,GI50,[24],> 100 µM (inactive)
same,GI50,[25],> 100 µM (inactive)
same,GI50,[26],> 100 µM (inactive)
same,GI50,[27],> 100 µM (inactive)
same,GI50,[28],> 100 µM (inactive)
same,GI50,[29],> 100 µM (inactive)
same,GI50,[30],> 100 µM (inactive)
same,GI50,[31],> 100 µM (inactive)
same,GI50,[32],> 100 µM
same,GI50,[33],> 100 µM (inactive)
same,GI50,[34],> 100 µM (inactive)
same,GI50,[35],> 100 µM (inactive)
same,GI50,[36],> 100 µM (inactive)
same,GI50,[37],> 100 µM (inactive)
same,GI50,[38],> 100 µM (inactive)
same,GI50,[39],> 100 µM (inactive)
same,GI50,[40],> 100 µM (inactive)
same,GI50,[41],> 100 µM (inactive)
same,GI50,[42],> 100 µM (inactive)
same,GI50,[43],> 100 µM (inactive)
same,GI50,[44],> 100 µM (inactive)
same,GI50,[45],> 100 µM (inactive)
same,GI50,[46],> 100 µM (inactive)
same,GI50,[47],> 100 µM (inactive)
same,GI50,[48],> 100 µM (inactive)
same,GI50,[49],> 100 µM (inactive)
same,GI50,[50],> 100 µM (inactive)
same,GI50,[51],> 100 µM (inactive)
same,GI50,[52],> 100 µM (inactive)
same,GI50,[53],> 100 µM (inactive)
same,GI50,[54],> 100 µM (inactive)
same,GI50,[55],> 100 µM (inactive)
same,GI50,[56],> 100 µM (inactive)
same,GI50,[57],> 100 µM (inactive)
O=c1[nH]cc(/N=C/c2cc(Cl)ccc2O)c(=O)[nH]1,GI50,[1],29.1 µM (inactive)
same,GI50,[2],23.6 µM (inactive)
same,GI50,[3],25.1 µM (inactive)
same,GI50,[4],19 µM (inactive)
same,GI50,[5],19.2 µM (inactive)
same,GI50,[6],13.8 µM (inactive)
same,GI50,[7],20.7 µM (inactive)
same,GI50,[8],7.83 µM (inactive)
same,GI50,[9],17.5 µM (inactive)
same,GI50,[10],14.8 µM (inactive)
same,GI50,[11],58.7 µM (inactive)
same,GI50,[12],1.85 µM (inactive)
same,GI50,[13],20.1 µM (inactive)
same,GI50,[14],47.2 µM (inactive)
same,GI50,[15],22 µM (inactive)
same,GI50,[16],7.26 µM (inactive)
same,GI50,[17],4.84 µM (inactive)
same,GI50,[18],8.05 µM (inactive)
same,GI50,[19],37.8 µM (inactive)
same,GI50,[21],17.7 µM (inactive)
same,GI50,[22],31.3 µM (inactive)
same,GI50,[23],20.6 µM (inactive)
same,GI50,[58],2.26 µM (inactive)
same,GI50,[24],9.02 µM (inactive)
same,GI50,[25],4.35 µM (inactive)
same,GI50,[26],> 100 µM (inactive)
same,GI50,[27],9.04 µM (inactive)
same,GI50,[28],13.7 µM (inactive)
same,GI50,[29],81.7 µM (inactive)
same,GI50,[30],5.93 µM (inactive)
same,GI50,[31],25.3 µM (inactive)
same,GI50,[32],2.22 µM
same,GI50,[33],19.6 µM (inactive)
same,GI50,[34],3.88 µM (inactive)
same,GI50,[35],26.2 µM (inactive)
same,GI50,[36],8.83 µM (inactive)
same,GI50,[37],4.71 µM (inactive)
same,GI50,[38],29.6 µM (inactive)
same,GI50,[39],19.1 µM (inactive)
same,GI50,[40],14.1 µM (inactive)
same,GI50,[41],13.6 µM (inactive)
same,GI50,[42],48.8 µM (inactive)
same,GI50,[44],13.1 µM (inactive)
same,GI50,[45],32.1 µM (inactive)
same,GI50,[46],11.2 µM (inactive)
same,GI50,[47],5.62 µM (inactive)
same,GI50,[48],21.6 µM (inactive)
same,GI50,[49],21.9 µM (inactive)
same,GI50,[50],30.3 µM (inactive)
same,GI50,[51],2.18 µM (inactive)
same,GI50,[52],18.7 µM (inactive)
same,GI50,[53],31.7 µM (inactive)
same,GI50,[54],1.89 µM (inactive)
same,GI50,[55],22.4 µM (inactive)
same,GI50,[56],> 100 µM (inactive)
same,GI50,[57],> 100 µM (inactive)
